Entries after “also recorded” stand apart in the source; their conditions may differ. Where no end group is shown, it is not given here.
Key:
[1] = system: untransfected HEK293 cells; assay: Cell viability assay (CCK-8), untransfected HEK293 cells; type: cell-based; details: 1 h treatment, 0.01, 1, 100, and 500 nM; CCK-8, absorbance 450 nm
Method: (§1) The cell viability of the HEK293 cells was assessed with a Cell Counting Kit-8 (CCK-8, DJDB4000X, Dojindo laboratory, Kumanoto, Japan). Both the HEK293 cells and HEK293 cells expressing AAV–CMV–hKv–IRES2–EGFP were seeded onto a 96-well plate (1 × 10^4 cells/well). After 24 h of incubation, ShK, NnK-1, NnK-1 mu, and NnK-1 w/o d (0, 0.01, 1, 100, or 500 nM) were used to treat the cells in each well for 1 h. After that, a dye solution was used to treat the cells for 2 h, and the absorbance was measured at 450 nm using a microplate reader (GloMax explorer multimode, Promega, Madison, WI, USA).

hKv1.4 = assay: Whole-cell patch-clamp current recording, hKv1.4; type: cell-based, human
Method: (§2) The amplification was performed in the Veriti™ 96-Well Fast Thermal Cycler (Applied Biosystems, Waltham, MA, USA) with a thermal cycling program consisting of predenaturation for 3 min at 95 °C, followed by 30 cycles of denaturation for 30 s at 95 °C, annealing for 30 s at 58 °C, and extension for 30 s at 72 °C, with a final extension for 3 min at 72 °C. A Human cDNA Clone Set (OriGene Technologies GmbH, Herford, Germany) was used as the template. A MCS (multi-cloning site) digested from the pAAV-MCS vector (Cell Biolabs, San Diego, CA, USA) was ligated into the pIRES2-EGFP vector (Clontech Laboratories, Mountain View, CA, USA) to form pAAV–CMV–IRES2–EGFP. The PCR products were ligated into the pAAV–CMV–IRES2–EGFP vector at the NheI and SalI sites to construct pAAV–CMV–hKv–IRES2–EGFP.
(§3) The HEK293 cells were transfected with pAAV–CMV–hKv–IRES2–EGFP (2 μg) using Effectene Transfection Reagent (Qiagen, Hilden, Germany) for 12–18 h. The transfectants (1 × 10^5/mL) were seeded onto 12 mm coverslips coated with 0.01 mg/mL poly-D-lysine for 2–3 h.
(§4) The HEK293 cells expressing AAV–CMV–hKv–IRES2–EGFP were reseeded onto coverslips. The HEK293 transfectants were monitored for their green fluorescence and used as patch cells. Patch pipettes were filled with an internal solution (140 mM potassium gluconate, 10 mM HEPES, 0.2 mM ATP, and 0.06 mM GTP). An external solution [130 mM NaCl, 10 mM HEPES, 3 mM KCl, 1.5 mM D-glucose, 10 mM sucrose, […], 1.5 mM MgCl2·6H2O, osmolarity 320 mmol/kg (pH 7.2)] was used as the basic buffer. Psora4, ShK, or NnK-1 (0, 0.01, 1, 100, or 500 nM) was bath-applied for 2 min to block the currents recorded from the HEK293 cells expressing AAV–CMV–hKv–IRES2–EGFP with voltages ranging from −130 to 50 mV in the increments of 20 mV and 0.6 s. […]

hKv1.3 = assay: Whole-cell patch-clamp current recording, hKv1.3; type: cell-based, human; details: for hKv1.3 IV curve, p vs. 0 nM: IV curves −130 to 50 mV (Figure 3), two-way ANOVA; for hKv1.3 IV curve, p vs. 0 nM / reduction of hKv1.3 current amplitude at 50 mV, p vs. 0 nM: Dunnett's post hoc; for reduction of hKv1.3 current amplitude at 50 mV, p vs. 0 nM: one-way ANOVA; for current of hKv1.3 (current amplitude), effect of treatment / inhibition of the current amplitudes of hKv1.3 by NnK-1 analogs: 0.01, 1, 100, or 500 nM; for current of hKv1.3 (current amplitude), effect of treatment: HEK293 cells expressing hKv1.3, bath-applied for 2 min, whole-cell, holding potential –70 mV; for hKv1.3 IV curves, two-way ANOVA group effect p: group effect, 0, 0.01, 1, 100, or 500 nM, Figure 3 IV curves; for hKv1.3 current amplitude at 50 mV, one-way ANOVA p: overall, 0, 0.01, 1, 100, or 500 nM; for inhibition of the current amplitudes of hKv1.3 by NnK-1 analogs: Figure 6
Method: as §2, §3
The HEK293 cells expressing AAV–CMV–hKv–IRES2–EGFP were reseeded onto coverslips. The HEK293 transfectants were monitored for their green fluorescence and used as patch cells. Patch pipettes were filled with an internal solution (140 mM potassium gluconate, 10 mM HEPES, 0.2 mM ATP, and 0.06 mM GTP). An external solution [130 mM NaCl, 10 mM HEPES, 3 mM KCl, 1.5 mM D-glucose, 10 mM sucrose, […], 1.5 mM MgCl2·6H2O, osmolarity 320 mmol/kg (pH 7.2)] was used as the basic buffer. Psora4, ShK, or NnK-1 (0, 0.01, 1, 100, or 500 nM) was bath-applied for 2 min to block the currents recorded from the HEK293 cells expressing AAV–CMV–hKv–IRES2–EGFP with voltages ranging from −130 to 50 mV in the increments of 20 mV and 0.6 s. Whole-cell patch recordings from […] under voltage-clamp conditions (holding potential of –70 mV) were made with the Multiclamp 700 B microelectrode amplifier (Automate Scientific Inc., Berkeley, CA, USA) digitized with a Digidata 1322 A data acquisition system (Molecular Devices Limited, San Jose, CA, USA). In this study, all electrophysiological data from the cultured cells were obtained at a temperature of 23–25 °C and maintained with the CL-100 Temperature Controller (Warner Instruments LLC, Hamden, CT, USA).

hKv11.1 = assay: Whole-cell patch-clamp current recording, hKv11.1; type: cell-based, human; details: 100 nM NnK-1; Figure 4F; HEK293, bath-applied 2 min, 23–25 °C
Method: as §2
(§5) The HEK293 cells were transfected with pAAV–CMV–hKv–IRES2–EGFP (2 μg) using Effectene Transfection Reagent (Qiagen, Hilden, Germany) for 12–18 h. […]
(§6) The HEK293 cells expressing AAV–CMV–hKv–IRES2–EGFP were reseeded onto coverslips. The HEK293 transfectants were monitored for their green fluorescence and used as patch cells. […] Psora4, ShK, or NnK-1 (0, 0.01, 1, 100, or 500 nM) was bath-applied for 2 min to block the currents recorded from the HEK293 cells expressing AAV–CMV–hKv–IRES2–EGFP with voltages ranging from −130 to 50 mV in the increments of 20 mV and 0.6 s. […]

hKv1.1 = assay: Whole-cell patch-clamp current recording, hKv1.1; type: cell-based, human; details: HEK293, bath-applied 2 min
Method: as §2, §5, §6

hKv1.5 = assay: Whole-cell patch-clamp current recording, hKv1.5; type: cell-based, human
Method: as §2, §3, §4

hKv3.1 = assay: Whole-cell patch-clamp current recording, hKv3.1; type: cell-based, human; details: 100 nM NnK-1; Figure 4E; HEK293, bath-applied 2 min, 23–25 °C
Method: as §2, §5, §6

[2] = Maintenance of disulfide bonds of synthetic NnK-1 in solution; type: physicochemical; details: dissolved in a solution; inferred from comparison with NnK-1 w/o d on hKv1.3
Excerpt: Another peptide, NnK-1 w/o d, which had the same amino acid residues but without three pairs of disulfide bonds, was also synthesized to test whether the disulfide bonds were still intact in the synthetic NnK-1 after being dissolved in a solution.

[3] = system: hKv1.3-transfected HEK293 cells; assay: Cell viability assay (CCK-8), hKv1.3-transfected HEK293 cells; type: cell-based; details: 1 h treatment, 0.01, 1, 100, and 500 nM; CCK-8, absorbance 450 nm
Method: as §3, §1

[4] = 100 nM, HEK293, bath-applied 2 min, 23–25 °C (Figure 4)
[5] = electrophysiological assay, summary statement
[6] = 0.01 nM, HEK293, bath-applied 2 min, pH 7.2, 23–25 °C
[7] = 1 nM, HEK293, bath-applied 2 min, pH 7.2, 23–25 °C
[8] = 1 nM, bar graph at 50 mV (Figure 3), HEK293, bath-applied 2 min, pH 7.2, 23–25 °C
[9] = 100 nM, HEK293, bath-applied 2 min, pH 7.2, 23–25 °C
[10] = 100 nM, bar graph at 50 mV (Figure 3), HEK293, bath-applied 2 min, pH 7.2, 23–25 °C
[11] = 500 nM, HEK293, bath-applied 2 min, pH 7.2, 23–25 °C
[12] = 500 nM, bar graph at 50 mV (Figure 3), HEK293, bath-applied 2 min, pH 7.2, 23–25 °C
[13] = HEK293, bath-applied 2 min, 23–25 °C

| Compound | hKv1.3 IV curve, p vs. 0 nM (hKv1.3; [6]) | hKv1.3 IV curve, p vs. 0 nM (hKv1.3; [7]) | reduction of hKv1.3 current amplitude at 50 mV, p vs. 0 nM (hKv1.3; [8]) | hKv1.3 IV curve, p vs. 0 nM (hKv1.3; [9]) | reduction of hKv1.3 current amplitude at 50 mV, p vs. 0 nM (hKv1.3; [10]) | hKv1.3 IV curve, p vs. 0 nM (hKv1.3; [11]) | reduction of hKv1.3 current amplitude at 50 mV, p vs. 0 nM (hKv1.3; [12]) | current of hKv1.3 (current amplitude), effect of treatment (hKv1.3; pH 7.2, 23–25 °C) | hKv1.3 IV curves, two-way ANOVA group effect p (hKv1.3) | hKv1.3 current amplitude at 50 mV, one-way ANOVA p (hKv1.3; Figure 3 bar graphs) | hKv1.3 current amplitude at 50 mV, one-way ANOVA p (hKv1.3; Figure 6 bar graphs) | inhibition of the current amplitudes of hKv1.3 by NnK-1 analogs (hKv1.3; [13]) | other results |
| --- | --- | --- | --- | --- | --- | --- | --- | --- | --- | --- | --- | --- | --- |
| CKDHHTYGVYCKDWKSSGECKKNPKGMRHFCRKTCGFC (disulfide (positions not given here)) [NnK-1, fifth ShK-like peptide of the Nemopilema nomurai NnK-1 precursor, chemically synthesized] | < 0.01 | < 0.0001 | < 0.0001 | < 0.0001 | < 0.0001 | < 0.0001 | < 0.0001 | significantly reduced | < 0.0001 | < 0.0001 | < 0.05 | – | cell viability, untransfected HEK293 [1]: no difference; hKv1.4 IV curve, two-way ANOVA group effect p (hKv1.4; 100 nM NnK-1, Figure 4C, HEK293, bath-applied 2 min, 23–25 °C): < 0.01; inhibition of the current amplitude of hKv1.4 (hKv1.4; [4]): significantly inhibited; channel block, hKv1.4 (hKv1.4; [5]): effective blocker; reduction of hKv1.3 current amplitude at 50 mV, p vs. 0 nM (hKv1.3; 0.01 nM, bar graph at 50 mV (Figure 3), HEK293, bath-applied 2 min, pH 7.2, 23–25 °C): < 0.05; hKv1.3 IV curve, two-way ANOVA group effect p (hKv1.3; 100 nM NnK-1, Figure 4B, HEK293, bath-applied 2 min, 23–25 °C): < 0.05; reduction of hKv1.3 current amplitude at 50 mV, p vs. 0 nM (hKv1.3; 100 nM, Figure 6B, HEK293, bath-applied 2 min): < 0.05; inhibition of the current amplitude of hKv1.3 (hKv1.3; [4]): significantly inhibited; reduction of hKv1.3 current amplitude at 50 mV, p vs. 0 nM (hKv1.3; 500 nM, Figure 6B, HEK293, bath-applied 2 min): < 0.05; channel block, hKv1.3 (hKv1.3; [5]): effective blocker; also recorded: Kv1.3-blocking activity; hKv11.1 IV curve, two-way ANOVA group effect p (hKv11.1): 0.39; hKv1.1 IV curve, two-way ANOVA group effect p (hKv1.1; 100 nM NnK-1, Figure 4A, 23–25 °C): 0.52; inhibition of the current amplitude of hKv1.1 (hKv1.1; 100 nM, 23–25 °C (Figure 4)): not that of hKv1.1, hKv3.1, and hKv.11.1; hKv1.5 IV curve, two-way ANOVA group effect p (hKv1.5; 100 nM NnK-1, Figure 4D, HEK293, bath-applied 2 min, 23–25 °C): < 0.001; inhibition of the current amplitude of hKv1.5 (hKv1.5; [4]): significantly inhibited; channel block, hKv1.5 (hKv1.5; [5]): effective blocker; hKv3.1 IV curve, two-way ANOVA group effect p (hKv3.1): 0.46; disulfide bonds in solution [2]: maintained even when dissolved in a solution; cell viability, hKv1.3-transfected HEK293 [3]: no difference |
| O=c1ccc2c(OCCCCc3ccccc3)c3ccoc3cc2o1 [Psora4, reference compound] | < 0.05 | < 0.0001 | < 0.01 | < 0.0001 | < 0.001 | < 0.0001 | < 0.0001 | significantly reduced | < 0.0001 | < 0.0001 | – | – | – |
| CKEHHTYGVYCKDWKSSGECKKNPRGMRHFCRKMCGFC (disulfide (positions not given here)) [NnK-1 mu, NnK-1 with three amino acids substituted with 3Glu, 25Arg, and 34Met] | – | – | – | – | – | – | – | – | – | – | 0.89 | neither NnK-1 mu nor NnK-1 w/o d inhibited the current amplitudes of hKv1.3 | – |
| CKDHHTYGVYCKDWKSSGECKKNPKGMRHFCRKTCGFC [NnK-1 w/o d, same amino acid residues as NnK-1 but without three pairs of disulfide bonds] | – | – | – | – | – | – | – | – | – | – | 0.28 | neither NnK-1 mu nor NnK-1 w/o d inhibited the current amplitudes of hKv1.3 | – |

— paper PMC11122761, “Synthetic ShK-like Peptide from the Jellyfish Nemopilema nomurai Has Human Voltage-Gated Potassium-Channel-Blocking Activity” (Marine Drugs, 2024)
